From the Kinase Knowledgebase extract (Sharma et al. 2016) come the findings set out here.

Several values for one entry are separate records, joined by “and”; a condition that tells them apart may be missing. Equal values may be shown once.

The IC50 is the concentration that inhibits the measured activity by half. A lower IC50 goes with higher potency. The term LD50 denotes the dose at which mortality reaches 50%. The low end stands for greater toxicity, the high end for lower toxicity. By GI50 is commonly meant the concentration giving 50% growth inhibition. Lower therefore signals more potent growth inhibition.

The target of assay [1] is EGFR (human) (UniProt P00533).
Sequence of EGFR (human) (P00533 whole entry, looked up): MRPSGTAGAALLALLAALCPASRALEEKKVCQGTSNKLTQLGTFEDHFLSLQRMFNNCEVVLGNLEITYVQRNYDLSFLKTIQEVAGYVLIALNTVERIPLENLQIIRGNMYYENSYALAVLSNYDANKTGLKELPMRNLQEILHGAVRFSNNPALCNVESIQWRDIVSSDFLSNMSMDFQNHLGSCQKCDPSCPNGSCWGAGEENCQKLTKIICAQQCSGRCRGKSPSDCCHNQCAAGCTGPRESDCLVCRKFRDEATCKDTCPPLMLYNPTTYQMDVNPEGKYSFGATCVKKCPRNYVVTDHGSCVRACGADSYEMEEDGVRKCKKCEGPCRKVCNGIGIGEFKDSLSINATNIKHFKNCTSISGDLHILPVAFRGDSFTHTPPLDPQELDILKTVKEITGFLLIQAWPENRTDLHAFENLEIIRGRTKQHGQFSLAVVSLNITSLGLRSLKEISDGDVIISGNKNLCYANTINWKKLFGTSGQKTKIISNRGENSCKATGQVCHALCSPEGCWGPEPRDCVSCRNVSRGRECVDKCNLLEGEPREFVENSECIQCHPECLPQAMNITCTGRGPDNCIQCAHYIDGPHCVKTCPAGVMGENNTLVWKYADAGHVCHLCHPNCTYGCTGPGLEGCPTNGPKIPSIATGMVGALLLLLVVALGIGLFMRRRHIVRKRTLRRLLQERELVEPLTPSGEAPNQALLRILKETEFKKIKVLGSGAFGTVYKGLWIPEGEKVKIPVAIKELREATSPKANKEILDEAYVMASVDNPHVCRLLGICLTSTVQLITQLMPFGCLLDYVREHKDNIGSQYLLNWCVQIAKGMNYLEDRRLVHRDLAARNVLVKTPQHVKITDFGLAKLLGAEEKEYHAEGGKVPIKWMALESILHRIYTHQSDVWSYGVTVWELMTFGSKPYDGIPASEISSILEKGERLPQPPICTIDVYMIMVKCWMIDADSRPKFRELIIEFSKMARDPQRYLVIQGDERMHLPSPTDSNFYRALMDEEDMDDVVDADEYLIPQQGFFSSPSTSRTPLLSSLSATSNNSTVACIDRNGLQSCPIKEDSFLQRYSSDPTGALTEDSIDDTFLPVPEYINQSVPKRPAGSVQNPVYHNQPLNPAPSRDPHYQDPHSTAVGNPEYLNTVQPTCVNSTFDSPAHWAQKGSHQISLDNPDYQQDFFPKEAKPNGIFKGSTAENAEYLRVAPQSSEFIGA
Assay [2] concerns the target EGFR (human) (UniProt P00533). The source holds these as a separate data set.
The target of another assay is EGFR (murine) (UniProt P00533). Conditions: nih3t3.
A further assay deals with EGFR (Balb/c mice) (UniProt P00533).
Assay [3] deals with EGFR (human) (UniProt P00533). The conditions noted are these: a431.
Assay [4] addresses PIK3CB;PIK3CD;PIK3CA (human) (UniProt O00329). The experiment in a line: Assessment of PI3K Kinase Activity.
Assay [5] concerns the target EGFR (human) (UniProt P00533). The source holds these as a separate data set.
Assay [6] concerns the target EGFR (human) (UniProt P00533). The conditions noted are these: a549.
For assay [7], the target named is EGFR (human) (UniProt P00533). The source holds these as a separate data set.
Assay [8] has as its target PIK3CB;PIK3CG;PIK3CD;PIK3CA (human) (UniProt P48736). The experiment in a line: Assessment of PIK3CA/PIK3CB/PIK3CD/PIK3CG Kinase Activity.
Assay [9] addresses EGFR (human) (UniProt P00533). The conditions noted are these: a431. This is another data set of the same source.
Assay [10] has as its target PIK3CA (human) (UniProt P42336). The experiment in a line: Assessment of PIK3CA Kinase Activity in NZB5 Cells.
The target is the same in assay [11]. The experiment in a line: Assessment of PIK3CA Kinase Activity in NZOV9 Cells.
Assay [12] addresses EGFR (human) (UniProt P00533). The conditions noted are these: kb.
The target of assay [13] is EGFR (human) (UniProt P00533). Conditions: a431. This is another data set of the same source.
In assay [14] the target is EGFR (human) (UniProt P00533). The conditions noted are these: a431. This is another data set of the same source.
The target in assay [15] is PIK3CA (human) (UniProt P42336). The experiment in a line: Inhibition of PIK3CA Kinase Activity.
Sequence of PIK3CA (human) (P42336 whole entry, looked up): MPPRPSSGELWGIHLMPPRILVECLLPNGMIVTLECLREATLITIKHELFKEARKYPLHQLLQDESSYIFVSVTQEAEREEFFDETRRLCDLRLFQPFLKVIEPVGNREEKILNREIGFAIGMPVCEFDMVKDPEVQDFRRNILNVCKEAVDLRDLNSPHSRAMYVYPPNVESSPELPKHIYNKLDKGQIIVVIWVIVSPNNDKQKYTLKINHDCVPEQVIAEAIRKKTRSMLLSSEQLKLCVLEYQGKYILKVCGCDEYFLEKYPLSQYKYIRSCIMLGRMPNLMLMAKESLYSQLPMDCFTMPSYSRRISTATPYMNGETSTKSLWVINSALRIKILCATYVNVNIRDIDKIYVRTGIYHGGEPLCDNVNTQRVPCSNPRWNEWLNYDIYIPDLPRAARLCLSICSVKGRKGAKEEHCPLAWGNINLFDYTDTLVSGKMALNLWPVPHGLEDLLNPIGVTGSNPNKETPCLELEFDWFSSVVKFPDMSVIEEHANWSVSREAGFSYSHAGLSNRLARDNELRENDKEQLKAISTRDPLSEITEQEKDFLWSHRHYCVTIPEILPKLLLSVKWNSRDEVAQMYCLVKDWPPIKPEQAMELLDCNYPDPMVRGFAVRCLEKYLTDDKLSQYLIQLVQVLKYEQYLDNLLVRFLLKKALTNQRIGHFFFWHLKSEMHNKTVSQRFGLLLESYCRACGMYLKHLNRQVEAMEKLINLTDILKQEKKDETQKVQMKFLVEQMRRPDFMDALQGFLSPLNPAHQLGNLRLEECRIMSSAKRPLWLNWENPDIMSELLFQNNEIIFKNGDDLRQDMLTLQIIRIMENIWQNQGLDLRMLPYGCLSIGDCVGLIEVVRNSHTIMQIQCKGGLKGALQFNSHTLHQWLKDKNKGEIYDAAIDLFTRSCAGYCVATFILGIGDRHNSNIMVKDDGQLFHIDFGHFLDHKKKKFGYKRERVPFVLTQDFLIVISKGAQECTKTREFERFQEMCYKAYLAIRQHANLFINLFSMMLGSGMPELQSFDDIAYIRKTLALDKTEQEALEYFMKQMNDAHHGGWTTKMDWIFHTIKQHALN
The target is the same in assay [16]. Put plainly: Assesment of Cell Proliferation of IGROV-1 Cells Using SRB Assay.
Another assay has as its target EGFR (UniProt P00533).
Assay [17] concerns the target MAPK14 (human) (UniProt Q16539). The experiment in a line: Inhibition of MAPK14 Kinase Activity.
In assay [18] the target is EGFR (human) (UniProt P00533). This is another data set of the same source.
In another assay the target is PIK3CB (Human) (UniProt P42338). The experiment in a line: Inhibition of PIK3CB Kinase (ATP Loss) Activity.
Assay [19] concerns the target EGFR (human) (UniProt P00533). The conditions noted are these: a431. This is another data set of the same source.
Assay [20] addresses MAPK14 (human) (UniProt Q16539). Put plainly: Cellular Inhibition of MAPK14 Kinase in A549 Cells.
For assay [21], the target named is EGFR (human) (UniProt P00533). Conditions: a431. This is another data set of the same source.

Sequence of PIK3CB;PIK3CD;PIK3CA (human) (O00329 whole entry, looked up): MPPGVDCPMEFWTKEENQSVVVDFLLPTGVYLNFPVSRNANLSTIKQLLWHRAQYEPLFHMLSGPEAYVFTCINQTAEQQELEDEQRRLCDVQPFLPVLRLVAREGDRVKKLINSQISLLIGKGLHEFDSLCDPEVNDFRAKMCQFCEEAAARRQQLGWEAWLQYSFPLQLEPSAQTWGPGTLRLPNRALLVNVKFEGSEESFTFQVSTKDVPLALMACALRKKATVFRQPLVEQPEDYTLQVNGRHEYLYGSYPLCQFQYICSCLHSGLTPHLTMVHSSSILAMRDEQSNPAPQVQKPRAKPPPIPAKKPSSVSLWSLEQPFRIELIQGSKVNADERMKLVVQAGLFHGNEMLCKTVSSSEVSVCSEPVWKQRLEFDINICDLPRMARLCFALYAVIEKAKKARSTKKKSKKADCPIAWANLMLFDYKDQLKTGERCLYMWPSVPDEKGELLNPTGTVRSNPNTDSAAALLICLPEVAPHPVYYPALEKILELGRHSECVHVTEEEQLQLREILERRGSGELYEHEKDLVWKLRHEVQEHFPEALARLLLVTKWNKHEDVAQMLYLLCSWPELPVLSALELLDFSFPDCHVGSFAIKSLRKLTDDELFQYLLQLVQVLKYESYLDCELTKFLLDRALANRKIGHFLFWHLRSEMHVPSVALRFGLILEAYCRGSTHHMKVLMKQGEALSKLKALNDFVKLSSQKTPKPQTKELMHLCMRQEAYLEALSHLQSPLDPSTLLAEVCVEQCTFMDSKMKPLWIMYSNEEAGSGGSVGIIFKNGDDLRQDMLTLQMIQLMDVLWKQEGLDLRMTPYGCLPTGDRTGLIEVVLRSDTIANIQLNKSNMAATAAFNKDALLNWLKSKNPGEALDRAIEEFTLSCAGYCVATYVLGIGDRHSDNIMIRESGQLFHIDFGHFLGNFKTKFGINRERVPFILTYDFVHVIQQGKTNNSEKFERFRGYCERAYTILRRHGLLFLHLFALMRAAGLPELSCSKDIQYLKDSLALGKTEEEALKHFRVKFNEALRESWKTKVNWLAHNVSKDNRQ
Sequence of MAPK14 (human) (Q16539 whole entry, looked up): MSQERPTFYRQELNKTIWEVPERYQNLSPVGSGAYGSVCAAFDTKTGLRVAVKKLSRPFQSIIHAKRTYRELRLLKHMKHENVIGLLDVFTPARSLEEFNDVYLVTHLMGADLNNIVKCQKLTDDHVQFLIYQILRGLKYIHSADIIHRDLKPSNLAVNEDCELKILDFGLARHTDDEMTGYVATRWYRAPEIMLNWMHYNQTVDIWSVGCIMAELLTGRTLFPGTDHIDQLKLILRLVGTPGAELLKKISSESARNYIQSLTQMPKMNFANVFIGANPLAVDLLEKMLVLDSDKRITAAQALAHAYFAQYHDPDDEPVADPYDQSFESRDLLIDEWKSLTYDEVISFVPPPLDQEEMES
Sequence of EGFR (P00533 whole entry, looked up): as the sequence (P00533 whole entry, looked up) above

`Cc1ncnc(Nc2ccc(OCc3cccc(F)c3)c(Cl)c2)c1-c1ccc(CNC(C)C)cc1` had a half-maximal inhibitory concentration (IC50) against EGFR (human) [1] of 0.024 µM.
In turn, `CN(c1ccc(N2CCOCC2)cc1)c1ncnc2nc(Nc3ccc(S(N)(=O)=O)cc3)sc12` displayed an IC50 at EGFR (human) [2] of 3.3 µM.
In turn, `COc1cc2ncnc(Nc3cccc(Cl)c3)c2cc1OC` gave a half-inhibitory concentration (IC50) in the assay with EGFR (murine) below 0.015 µM. This compound had a median lethal dose (LD50) with EGFR (Balb/c mice) above 200 mg/kg. Besides, the GI50 with EGFR (human) [3] worked out at 0.302 µM.
Consider `Cc1cc(NC(=O)Nc2ccc(-c3nc(CS(C)(=O)=O)cc(N4CCOCC4)n3)cc2)no1`, for which, in assay [4], the IC50 is 57.8 µM and 91.2 µM.
In turn, `C#Cc1cccc(Nc2ncnc3cc(OC)c(OCCCCCCC(=O)O)cc23)c1` showed a half-maximal inhibitory concentration (IC50) on EGFR (human) [5] of at most 0.1 µM.
On the same count and under the same terms, as for `C#Cc1cc(Nc2ncnc3cc(OC)c(OCCCCCCC(=O)O)cc23)ccc1O`, the figure is at most 0.1 µM.
Regarding `COc1cc(O)c2c(=O)n(-c3cccc(C(=O)N4CCCCC4)c3)ccc2c1NC(=O)Nc1ccc(C(=O)N2CCN(C)CC2)cc1`, the concentration for half-maximal inhibition (IC50) on EGFR (human) [6] is above 100 µM.
On to `COc1cc2c(Nc3ccc4[nH]c(C)cc4c3F)ncnc2cc1OCCCCCCC(=O)NO`, for which the IC50 at EGFR (human) [7] is at most 0.1 µM.
Consider `COc1cnc2[nH]c3cnc(-c4cccnc4)cc3c2c1-c1ccc(NS(C)(=O)=O)cc1`, for which, in [8], the IC50 was in the range of 0.001 to 0.1 µM.
Take `O=C(Cc1ccc(F)cc1)Nc1cc(SC[C@@H](O)CO)cc([N+](=O)[O-])c1`: on EGFR (human) [9], the IC50 is 28.8 µM. This lies in the double-digit micromolar range.
In the case of `Cc1ncnc(Nc2ccc(OCc3cccc(F)c3)c(Cl)c2)c1-c1ccc(CNC2CC2)cc1`, the IC50 against EGFR (human) [1] amounted to 0.098 µM.
Take `Cc1ccc([N+](=O)[O-])cc1S(=O)(=O)N(C)N=Cc1cnn2ccc(O)cc12`: the IC50 against PIK3CA (human) [10] and at PIK3CA (human) [11] was above 20 µM in each case.
In turn, `CNC(=O)[C@H]1C[C@H](Oc2cc3c(Nc4cccc(Cl)c4F)ncnc3cc2OC)CCN1C` yielded an IC50 at EGFR (human) [12] of 0.023 µM.
At EGFR (human) [9], `CCOc1ccc(-c2cc(C(F)(F)F)c(C#N)c(SCC(=O)NCC(=O)O)n2)cc1` registered an IC50 above 50 µM.
Regarding `CCN(c1ccc(N2CCOCC2)cc1)c1ncnc2nc(Nc3ccc(S(N)(=O)=O)cc3)sc12`, the IC50 on EGFR (human) [2] was 10.1 µM.
For the compound `Nc1nc(Nc2ccc(Cl)cc2F)c2cc(Cc3cccc4ccccc34)[nH]c2n1`, the IC50 was above 200 µM against EGFR (human) [13] and 46.7 µM against EGFR (human) [14].
On PIK3CA (human) [15], `c1ccc(CCNc2nc(-c3ccc4cc[nH]c4c3)cc(N3CCOCC3)n2)nc1` displayed a 50% inhibitory concentration (IC50) of 8.9 µM. In addition, the 50% growth inhibitory concentration (GI50) in the assay with PIK3CA (human) [16] amounted to 3.6 µM.
`O=S(=O)(CCc1cccc(C(F)(F)F)c1)Cc1cc(N2CCOCC2)nc(-c2ccccn2)n1` had an IC50 in [4] of 6.8 µM.
`CS(=O)(=O)Nc1ccc(-c2c(F)cnc3[nH]c4cnc(-c5cccnc5)cc4c23)cc1` returned a 50% inhibitory concentration (IC50) in assay [8] of 0.1 to 1 µM.
Compound `Cc1ccc([N+](=O)[O-])cc1S(=O)(=O)N(C)N=Cc1cnn2cccc(C)c12` showed an IC50 against PIK3CA (human) [11] above 20 µM.
`Ic1cccc(Nc2ncnc3ccccc23)c1` returned a half-maximal inhibitory concentration (IC50) at EGFR of 0.08 µM.
Turning to `OC[C@@H]1CCCN1Cc1ccc(Nc2nc3ncnc(Nc4ccc(F)c(Cl)c4)c3s2)cc1`, at EGFR (human) [2], the IC50 worked out at 0.0109 µM. This counts as double-digit nanomolar.
As for `O=C(CO)N1CCC(c2[nH]nc(-c3ccc(Cl)cc3)c2-c2ccncc2)CC1`, the 50% inhibitory concentration (IC50) was 0.111 µM on MAPK14 (human) [17] and below 1 µM against EGFR (human) [18].
At PIK3CB (Human), `O=S(=O)(Nc1cc(-c2ccc3cnccc3c2)cnc1Cl)c1ccc(F)cc1` yielded an IC50 of 40 µM.
For `CS(=O)(=O)Cc1cc(N2CCOCC2)nc(-c2ccc(NS(C)(=O)=O)cc2)n1`, in assay [4], the half-inhibitory concentration (IC50) turned out to be 54 µM.
Turning to `CN1CCC(c2[nH]nc(-c3ccc(Cl)cc3)c2-c2ccncn2)CC1`, the IC50 was 0.048 µM on MAPK14 (human) [17] and below 1 µM against EGFR (human) [18].
The compound `COc1ccc(OC)c(Cc2cc3c(Nc4cccc(Br)c4)ncnc3[nH]2)c1` registered an IC50 at EGFR (human) [19] of 4.5 µM.
Take `CNc1nccc(-c2cn(C(C)C)nc2-c2cc(Cl)cc(NS(C)(=O)=O)c2F)n1`: the half-maximal inhibitory concentration (IC50) at MAPK14 (human) [20] was 17 µM.
For the compound `CCOc1cc2ncnc(Nc3ccc(F)c(Cl)c3)c2cc1NC(=O)/C=C/[C@H]1CCCN1C`, the 50% inhibitory concentration (IC50) against EGFR (human) [21] was 0.008 µM. This lies in the single-digit nanomolar range.
